Values after ≈ are worked out from the molar mass of the structure shown. Read-outs that look alike come from different tables or passages of the source.

In test [1] the target is T1, MSPa (malate synthase G from P. aeruginosa) (Pseudomonas aeruginosa, UniProt Q9I636).
T1 construct: made in house
Put plainly: Inhibition of purified MSPa enzymatic activity. Particulars: for inhibition at 75 µM: 75 µM compound, read-out: Enzyme Inhibition (%) at 75 µM MSPa. The test is classed as biochemical. How it is done: (§1) The enzymatic activity of purified ICLPa and MSPa was assayed essentially as previously described. Compounds were added to the reaction mixtures (minus substrates) and incubated for 5 min at 37 °C. The enzyme concentration in the reaction mixtures was 170 nM for ICL and 25 nM for MS (based on the concentration of the monomer in each case). […] The reactions were initiated by the addition of pH-adjusted substrates, and the initial rates were recorded as A324 nm (for ICLPa) and A412 nm (for MSPa) using a Biospectrometer (Eppendorf, Stevenage, UK). Substrate turnover was calculated from the molar extinction coefficient of the assay products: Glyoxylate-phenylhydrazone (16,800/M/cm) for ICLPa and 2-nitro-5-thiobenzoic acid (14,150/M/cm) for MSPa.
(§2) All data fitting was performed with GraphPad Prism version 7.04 (GraphPad Software, Inc., La Jolla, CA, USA). The solid lines are the result of fitting the data to the equations denoted in relevant experimental sections. IC50 values were determined by a nonlinear fit using the equation for sigmoidal dose-response with variable slope. In all graphs, unless otherwise stated, the data points are the mean of experimental triplicates, and all error bars correspond to ± standard deviation.

Test [2] deals with T2, ICLPa (isocitrate lyase from P. aeruginosa) (Pseudomonas aeruginosa, UniProt Q9I0K4).
T2 construct: made in house
T2 sequence (Q9I0K4 1-531): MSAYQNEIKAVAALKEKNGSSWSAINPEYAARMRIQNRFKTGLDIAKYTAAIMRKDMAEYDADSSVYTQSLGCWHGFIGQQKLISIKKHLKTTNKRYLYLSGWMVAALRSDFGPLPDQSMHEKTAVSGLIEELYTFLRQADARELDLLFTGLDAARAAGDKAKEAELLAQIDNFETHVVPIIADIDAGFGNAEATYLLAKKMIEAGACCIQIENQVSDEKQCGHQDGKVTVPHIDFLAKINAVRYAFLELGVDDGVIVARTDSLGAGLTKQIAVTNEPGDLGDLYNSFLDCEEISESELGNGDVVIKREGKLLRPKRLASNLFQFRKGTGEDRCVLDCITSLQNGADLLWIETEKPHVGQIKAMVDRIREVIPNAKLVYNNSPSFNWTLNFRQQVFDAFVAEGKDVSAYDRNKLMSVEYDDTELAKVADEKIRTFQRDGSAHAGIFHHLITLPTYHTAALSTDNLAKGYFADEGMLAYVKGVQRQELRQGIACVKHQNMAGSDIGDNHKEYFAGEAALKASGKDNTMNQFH
Description: Inhibition of purified ICLPa enzymatic activity. The test is classed as biochemical. To be noted: for IC50: purified enzyme, 170 nM ICL. As for the experimental part:
as §1, §2

The subject of a further test is P. aeruginosa PAO1. Put plainly: Antibacterial growth assay (OD600, 18 h) in LB or M9-acetate. The test is classed as cell-based. To be noted: Pseudomonas aeruginosa; for inhibition at 200 µM: final optical density; for MIC: PAO1, MIC = lowest concentration inhibiting >75% of growth. How it is done:
Growth assays were carried out using clear, U-bottom, sterile 96-well plates (Thermo Fisher Scientific, Bishop’s Stortford, UK). P. aeruginosa PAO1 overnight cultures were diluted to a starting OD600 of 0.05 in LB medium or M9 medium supplemented with 0.5% acetate. The test compounds were added to the indicated final concentrations, and the plates were covered with gas-permeable adhesive seals (Scientific Laboratory Supplies, Nottingham, UK). Assay controls included 1% DMSO, a positive antibiotic control (ciprofloxacin, 1 µg/mL), and medium-only wells as a control for background absorbance. […]

Setting [3] is: 75 µM compound, read-out: Enzyme Inhibition (%) at 75 µM ICLPa.
Where [4] appears, read: PAO1, LB medium, read-out: PAO1 Growth Inhibition (%) at 200 µM LB.
The mark [5] stands for this setting: PAO1, M9-acetate medium, read-out: PAO1 Growth Inhibition (%) at 200 µM M9ac.
Where [6] appears, read: M9 medium with 0.5% acetate, read-out: MIC M9ac.

T1 sequence (Q9I636 whole entry): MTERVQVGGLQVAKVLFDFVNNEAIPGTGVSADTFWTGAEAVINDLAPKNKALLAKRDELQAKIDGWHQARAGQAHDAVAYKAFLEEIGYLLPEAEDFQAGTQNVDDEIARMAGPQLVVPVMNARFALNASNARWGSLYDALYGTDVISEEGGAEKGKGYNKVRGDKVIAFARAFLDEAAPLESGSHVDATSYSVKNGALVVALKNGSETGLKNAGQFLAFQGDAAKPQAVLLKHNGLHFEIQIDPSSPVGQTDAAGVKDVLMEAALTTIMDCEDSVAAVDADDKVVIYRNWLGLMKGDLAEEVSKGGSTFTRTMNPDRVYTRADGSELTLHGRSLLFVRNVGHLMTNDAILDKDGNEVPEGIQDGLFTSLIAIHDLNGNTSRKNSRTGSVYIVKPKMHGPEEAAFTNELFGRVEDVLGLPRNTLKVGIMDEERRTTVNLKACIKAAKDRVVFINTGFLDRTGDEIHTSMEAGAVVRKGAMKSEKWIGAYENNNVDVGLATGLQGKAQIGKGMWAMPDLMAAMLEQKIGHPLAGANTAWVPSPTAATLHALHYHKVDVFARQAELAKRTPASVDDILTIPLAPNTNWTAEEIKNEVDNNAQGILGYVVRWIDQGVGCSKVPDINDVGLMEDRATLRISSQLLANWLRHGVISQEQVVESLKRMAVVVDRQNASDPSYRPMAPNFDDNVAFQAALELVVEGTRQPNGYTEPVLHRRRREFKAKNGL

Turning to `COC(=O)c1ccnc(N/C(=N/C(=O)OC(C)(C)C)NC(=O)OC(C)(C)C)c1` [SB029], the IC50 is more than 75 µM in test [1] and 64.7 µM in test [2]. Also, the inhibition at 75 µM worked out at 0% in test [1] and 55.9% in test [2] (setting [3]). For the same compound, the inhibition at 200 µM in the test on P. aeruginosa PAO1 (setting [4]) came out at 6%; with P. aeruginosa PAO1 (setting [5]), 45%. Besides, the MIC in the test with P. aeruginosa PAO1 (LB medium, read-out: MIC LB) was more than 200 µM; in the test on P. aeruginosa PAO1 (setting [6]), more than 78.9 µM.

Take `CC(C)(C)OC(=O)/N=C(\NC(=O)OC(C)(C)C)Nc1cc(F)ccn1` [SB026]: the half-inhibitory concentration (IC50) in test [1] was 59.3 µM; in test [2], 54.5 µM. The inhibition at 75 µM came to 55.1% in test [1] and 62% in test [2] (setting [3]). The inhibition at 200 µM in the test on P. aeruginosa PAO1 (setting [4]) is approximately 23%; in the test on P. aeruginosa PAO1 (setting [5]) it was 72%. In addition, the minimal inhibitory concentration (MIC) in the test on P. aeruginosa PAO1 (LB medium, read-out: MIC LB) was more than 200 µM; in the test on P. aeruginosa PAO1 (setting [6]), 70.9 µM (≈ 25.1 µg/mL).

Take `CC(C)(C)OC(=O)/N=C(\NC(=O)OC(C)(C)C)Nc1cc(C(F)(F)F)ccn1` [SB022]: the 50% inhibitory concentration (IC50) in test [1] and in test [2] was more than 75 µM in each case. For the same compound, the inhibition at 75 µM in test [1] amounted to 0%; in test [2] (setting [3]), 4.3%. Further, the inhibition at 200 µM came to 0% in the test with P. aeruginosa PAO1 (setting [4]) and 7% in the test with P. aeruginosa PAO1 (setting [5]). For the same compound, the minimum inhibitory concentration (MIC) was more than 200 µM in the test with P. aeruginosa PAO1 (LB medium, read-out: MIC LB) and more than 200 µM in the test with P. aeruginosa PAO1 (setting [6]).

As to `CC(C)(C)OC(=O)/N=C(\NC(=O)OC(C)(C)C)Nc1cc(Br)ccn1` [SB001], the IC50 in test [1] and in test [2] was more than 75 µM each time. For the same compound, the inhibition at 75 µM in test [1] turned out to be 16.2%; in test [2] (setting [3]) it was 6.1%. Also, the figures for the inhibition at 200 µM in the test on P. aeruginosa PAO1 (setting [4]) and with P. aeruginosa PAO1 (setting [5]) were 0% and 48%, respectively. In addition, the MIC was more than 200 µM in the test on P. aeruginosa PAO1 (LB medium, read-out: MIC LB) and more than 200 µM in the test on P. aeruginosa PAO1 (setting [6]).

Turning to `C=C(CC(=O)O)C(=O)O` [ITA, itaconate, reference compound], the “Enzyme Inhibition (%) at 75 µM ICLPa” value in test [2] (75 µM compound) was found to be 72.6%. This compound also displayed a 50% inhibitory concentration (IC50) in test [2] of 24.9 µM. Also, in test [2] (read-out: Enzyme Inhibition (%) at 75 µM ICLPa, 75 µM compound), the inhibition at 75 µM is approximately 70%.

On to `CC(C)(C)OC(=O)/N=C(\NC(=O)OC(C)(C)C)Nc1ccnc(Cl)c1` [SB032], for which the figures for the IC50 in test [1] and in test [2] were 70.6 µM and 91.8 µM, respectively. In addition, the results for the inhibition at 75 µM in test [1] and in test [2] (setting [3]) were 48.7% and 43.8%, respectively.

These data come from PMC7177833, “2-Aminopyridine Analogs Inhibit Both Enzymes of the Glyoxylate Shunt in Pseudomonas aeruginosa” (International Journal of Molecular Sciences, 2020).
